What all share (type): cell-based
The subject of experiment [1] is CR3085 cell line (Large intestine/Colorectum). Put plainly: CellTiter-Glo cell viability assay, CR3085. To be noted: Homo sapiens. As for the experimental part:
(§1) All cell lines are hyman primary cell lines cultured in DMEM/F12+10% FBS+supplemental growth factors, at 37° C. with 5% C02, as explained below. The cell lines are from large intestine/colorectum, stomach, liver, lung or pancreas (see table below). • DMEM/F12 (high glucose) (Gibco, Cat #11320033) • FBS (Cat #FND500, ExCell Bio) • CellTiter-Glo® Luminescent Cell Viability Assay (Cat # G7571, Promega. Stored at −20° C.). • 96 wells plate (Cat #3610, Corning) • DMEM/F12 medium (low glucose): 1:1 mixture of DMEM (low glucose) (Gibco, Cat #11885076) and F-12K (Gibco, Cat #21127022)
(§2) Two types of cell lines have been tested for the compound 26, namely CR3085 (Large intestine/Colorectum) and GA0060 (stomach), as shown below.
(§3) 1. Each well of a 96-well plate contains 90 μL of cell suspension with cells. The number of cells to be seeded is determined on the basis of a Cell Density Optimization Assay. 2. All 96-wells plates with cells are placed in an incubator overnight at 37° C. with 5% CO2.
(§4) 3. Dilute ABX464 and add 10 μL/well of ABX464 at the concentrations indicated (see plate map below). The final volume is 100 μL/well.
(§5) 4. Replace the old medium by pre-prepared fresh medium with ABX464 at the same concentrations indicated. The final volume is 100 μL/well.
(§6) 5. Cells are observed under a microscope ensuring the cells treated with vehicle control are in good condition. 6. Add 50 μL of CellTiter-Glo® Reagent to each well. 7. Mix contents for 2 minutes on an orbital shaker to facilitate cell lysis. 8. Allow the plate to incubate at room temperature for 10 minutes to stabilize luminescent signals. 9. Record luminescence using an EnVision Multi Label Reader.
(§7) Data analysis is performed using GraphPad Prism 7.0. To calculate IC50s, a dose-response curve is generated using a nonlinear regression model with a sigmoidal dose response. The formula of surviving rate is shown below, and the IC50s will be automatically generated by GraphPad Prism 7.0.
(§8) LumNone treated-LumMedium control is set as 100%.
For orientation: Cellular ATP, detected with luciferase, serves as a proxy for viable cell number.

Experiment [2] relates to GA0060 cell line (Stomach). The experiment is described as follows: CellTiter-Glo cell viability assay, GA0060. As to conditions: Homo sapiens. Here is the method: as §1, §2, §3, §4, §5, §6, §7, §8
For experiment [3], the system named is CR0205 cell line (Large intestine/Colorectum). The experiment is described as follows: CellTiter-Glo cell viability assay, CR0205. As to conditions: Homo sapiens, 168 h, 7 days drug treatment. Here is the method:
as §1, §3, §4, §5
(§9) 5. Cells are observed under a microscope ensuring the cells treated with vehicle control are in good condition. 6. Add 50 μL of CellTiter-Glo® Reagent to each well. 7. […] Record luminescence using an EnVision Multi Label Reader. […]

The subject of experiment [4] is CR3150 cell line (Large intestine/Colorectum). Put plainly: CellTiter-Glo cell viability assay, CR3150. As to conditions: Homo sapiens, 168 h, 7 days drug treatment. As for the experimental part: as §1, §3, §4, §5, §9
Another experiment concerns LI0612 cell line (Liver). Put plainly: CellTiter-Glo cell viability assay, LI0612. As to conditions: Homo sapiens, 168 h, 7 days drug treatment. Here is the method: as §1, §3, §4, §5, §9
For the next experiment, the system named is LU0387 cell line (Lung). The experiment is described as follows: CellTiter-Glo cell viability assay, LU0387. As to conditions: Homo sapiens, 168 h, 7 days drug treatment. As for the experimental part:
as §1, §3, §4, §5, §9

The next experiment concerns LU2511 cell line (Lung). Put plainly: CellTiter-Glo cell viability assay, LU2511. As to conditions: Homo sapiens, 168 h, 7 days drug treatment. Here is the method:
as §1, §3, §4, §5, §9

The test system of experiment [5] is PA0692 cell line (Pancreas). Put plainly: CellTiter-Glo cell viability assay, PA0692. As to conditions: Homo sapiens, 168 h, 7 days drug treatment. As for the experimental part: as §1, §3, §4, §5, §9
The subject of experiment [6] is PA1266 cell line (Pancreas). The experiment is described as follows: CellTiter-Glo cell viability assay, PA1266. As to conditions: Homo sapiens, 168 h, 7 days drug treatment. Here is the method:
as §1, §3, §4, §5, §9

Experiment [7] has as its system PA1405 cell line (Pancreas). Put plainly: CellTiter-Glo cell viability assay, PA1405. As to conditions: Homo sapiens, 168 h, 7 days drug treatment. Here is the method: as §1, §3, §4, §5, §9
The test system of experiment [8] is PA3060 cell line (Pancreas). Put plainly: CellTiter-Glo cell viability assay, PA3060. As to conditions: Homo sapiens, 168 h, 7 days drug treatment. As for the experimental part: as §1, §3, §4, §5, §9
The mark [9] stands for this setting: 168 h, CR3085, Large intestine/Colorectum, 7 days drug treatment, CellTiter-Glo.
The mark [10] stands for this setting: 168 h, GA0060, Stomach, 7 days drug treatment, CellTiter-Glo.

What is called IC50 is the concentration that inhibits the measured activity by half. Lower therefore signals greater potency in that assay. With `FC(F)(F)c1ccc(Nc2ccc3cccc(Cl)c3n2)nc1` [Comparative compound 26, 8-chloro-N-(5-(trifluoromethyl)pyridin-2-yl)quinolin-2-amine], the IC50 was 0.17 µM in [1] (setting [9]); 0.17 µM in experiment [1] (cell line Large intestine/Colorectum CR3085, restated in text without unit); over 10 µM in [2] (setting [10]); over 10 µM in experiment [2] (cell line stomach GA0060, restated in text without unit).
As for `FC(F)(F)Oc1ccc(Nc2ccc3cccc(Cl)c3n2)cc1` [ABX464, 8-Chloro-N-(4-(trifluoromethoxy)phenyl)quinolin-2-amine], the IC50 in experiment [3] turned out to be 7.26 µM; in [1] (setting [9]) it was 0.08 µM; in experiment [4] it was 0.87 µM; in experiment [2] (setting [10]), 0.6 µM; in the experiment with LI0612 cell line (Liver), 4.75 µM; in the experiment with LU0387 cell line (Lung) it was 9.49 µM. For the same molecule, the IC50 with LU2511 cell line (Lung) was 7.11 µM; in [5], 9.63 µM; in experiment [6] it was 3.44 µM; in experiment [7] it was 6.2 µM; in experiment [8], 3.71 µM.

Values taken from patent US20220071985A1, “QUINOLINE DERIVATIVES FOR USE IN THE TREATMENT OR PREVENTION OF CANCER” (ABIVAX, priority 2018, published 2022).
